Measured values as given in USRE42890E1, “Furazanobenzimidazoles” (Basilea Pharmaceutica AG, priority 2003, dated 2011).
Read-outs that look alike come from different tables or passages of the source.

Columns and labels:
Jily = test: MTS proliferation assay, Jily; type: cell-based; settings: 72 h incubation, read-out: MTS proliferation assay IC 50 Jily
Experimental: (§1) Cell lines are cultured in RPMI-1640 tissue culture medium containing either 5% or 10% fetal calf serum, 0.05 mM 2-mercaptoethanol, 2 mM glutamine and penicillin/streptomycin 50 μg/ml (complete medium) (Sigma, Buchs, Switzerland). General growth conditions are 37° C. and 7.5% CO2.
(§2) The assay is performed in 96 well tissue culture plates. The cells (range: 1.5*10^3-10^4) are seeded out in 80 μl complete medium 24 h prior to compound treatment. The test compounds are added in 20 μl complete medium containing max 5% DMSO. The final compound concentrations in the assays are 10 μM, 3 μM, 1 μM and 0.3 μM, respectively. The assay plates are incubated for 72 h at culture conditions. The MTS reagent is prepared according to the manufacturer's protocol (Promega G1111). 20 μl MTS reagent are added to each well, the assay plates are quickly spun and incubated for another 3 h at culture conditions. Subsequently, the plates are shortly shaked and absorption measured with a microplate-reader at 492 nm.

HeLa = test: MTS proliferation assay, HeLa; type: cell-based, human; settings: 72 h incubation, read-out: MTS proliferation assay IC 50 HeLa
Summary of the method: (§3)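 Cells were seeded 24 h before treatment and exposed to compound at 10, 3, 1 and 0.3 μM final for 72 h at 37 °C, 7.5% CO2 in RPMI-1640 with 5% or 10% FCS. Viability was read by MTS reagent (3 h) as absorbance at 492 nm.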

[1] = test system: adherent cells or suspension cells; test: Hoechst 33342 nuclear staining (fraction of apoptotic nuclei); type: cell-based; parameters: key: 0 relating to no activity; 1 relating to weak activity comprising less than 70% of the cells; score 2 relating to strong activity comprising more than 70% of the cells
Jurkat = test: MTS proliferation assay, Jurkat; type: cell-based, human; settings: 72 h incubation, read-out: MTS proliferation assay IC 50 Jurkat
Summary of the method: as §3

HT1080 = test: MTS proliferation assay, HT1080; type: cell-based, human; settings: HT1080, 72 h incubation; read-out: MTS proliferation assay IC 50 HT1080
Experimental: as §1
The following human cell lines (either EGFP transfected or not) are being used: HeLa (ATCC: CCL-2), KB (ATCC: CCL-17), MCF7 (ATCC: HTB-22), SK-BR-3 (ATCC: HTB-30), SK-Mel 1 (ATCC: HTB-67), SK-Mel 28 (ATCC: HTB-72), PC-3 (ATCC: CRL-1435), SW 480 (ATCC: CCL-228), NCl-H460 (ATCC: HTB-177), NCl-H1792 (ATCC: CRL-5895), HT1080 (ATCC: CCL-21), Jurkat (ATCC: TIB-152), Ramos (ATCC: CRL-1596), Raji (ATCC: CCL-86), H9 (ATCC: HTB-176), Hut78 (ATCC: TIB-161), K562 (ATCC: CCL 243), HL-60 (ATCC: CCL 240), U-87MG (ATCC: HTB-14), HepG2 (ATCC: HB-8065), U-2 OS (ATCC: HTB-96), Saos-2 (ATCC: HTB-85), U937 (ATCC: CRL 1593), Hs 578T (ATCC: HTB 126), HBL-100 (ATCC: HTB 124), Molt-4 (ATCC: CRL 1582).
as §2

MRC5 = test: MTS proliferation assay, MRC5; type: cell-based; settings: MRC5, 72 h incubation; read-out: MTS proliferation assay IC 50 MRC5
Summary of the method: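 Cells in RPMI-1640 with 5% or 10% FCS, 2-mercaptoethanol and glutamine were seeded 24 h before treatment with compound at final 10, 3, 1 and 0.3 μM. After 72 h at 37° C and 7.5% CO2, MTS reagent was added for 3 h and absorbance read at 492 nm.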

| IC50 (HeLa; Homo sapiens) [µM] | Compound | IC50 (Jily) [µM] | Hoechst 33342 nuclear staining score ([1]; H460, conc 0.01 μm) | Hoechst 33342 nuclear staining score ([1]; H460, conc 0.1 μm) | Hoechst 33342 nuclear staining score ([1]; H460, conc 1 μm) | Hoechst 33342 nuclear staining score ([1]; HeLa, conc 0.01 μm) | Hoechst 33342 nuclear staining score ([1]; HeLa, conc 0.1 μm) | Hoechst 33342 nuclear staining score ([1]; HeLa, conc 1 μm) | Hoechst 33342 nuclear staining score ([1]; Jily, conc 0.01 μm) | Hoechst 33342 nuclear staining score ([1]; Jily, conc 0.1 μm) | Hoechst 33342 nuclear staining score ([1]; Jily, conc 1 μm) | Hoechst 33342 nuclear staining score ([1]; Jurkat, conc 0.01 μm) | Hoechst 33342 nuclear staining score ([1]; Jurkat, conc 0.1 μm) | Hoechst 33342 nuclear staining score ([1]; Jurkat, conc 1 μm) | Hoechst 33342 nuclear staining score ([1]; MRC5, conc 0.01 μm) | Hoechst 33342 nuclear staining score ([1]; MRC5, conc 0.1 μm) | Hoechst 33342 nuclear staining score ([1]; MRC5, conc 1 μm) | Hoechst 33342 nuclear staining score ([1]; PBLs, conc 0.01 μm) | Hoechst 33342 nuclear staining score ([1]; PBLs, conc 0.1 μm) | Hoechst 33342 nuclear staining score ([1]; PBLs, conc 1 μm) | also measured |
| --- | --- | --- | --- | --- | --- | --- | --- | --- | --- | --- | --- | --- | --- | --- | --- | --- | --- | --- | --- | --- | --- |
| 0.1 to 1 | Cc1ccc(OCn2c(-c3nonc3NCCC#N)nc3ccccc32)cc1C [Example 10, 4-[1-(3,4-Dimethylphenoxymethyl)-1H-benzimidazol-2-yl]-furazan-3-yl-N-(2-cyanoethyl)-amine] | 0.01 to 0.1 | 0 | 1 (1 relating to weak activity comprising less than 70% of the cells) | 2 (score 2 relating to strong activity comprising more than 70% of the cells) | 0 | 0 | 2 (score 2 relating to strong activity comprising more than 70% of the cells) | 0 | 1 (1 relating to weak activity comprising less than 70% of the cells) | 2 (score 2 relating to strong activity comprising more than 70% of the cells) | 0 | 2 (score 2 relating to strong activity comprising more than 70% of the cells) | 2 (score 2 relating to strong activity comprising more than 70% of the cells) | 0 | 0 | 1 (1 relating to weak activity comprising less than 70% of the cells) | 0 | 0 | 0 |  |
| 0.1 to 1 | O=C(Cn1c(-c2nonc2NCCCO)nc2ccccc21)c1ccc(Cl)cc1 [Example 11, 4-[1-(4-Chlorophenacyl)-1H-benzimidazol-2-yl]-furazan-3-yl-N-(3-hydroxypropyl)-amine] | 0.01 to 0.1 | 0 | 0 | 2 (score 2 relating to strong activity comprising more than 70% of the cells) | 0 | 1 (1 relating to weak activity comprising less than 70% of the cells) | 2 (score 2 relating to strong activity comprising more than 70% of the cells) | 0 | 2 (score 2 relating to strong activity comprising more than 70% of the cells) | 2 (score 2 relating to strong activity comprising more than 70% of the cells) | 0 | 2 (score 2 relating to strong activity comprising more than 70% of the cells) | 2 (score 2 relating to strong activity comprising more than 70% of the cells) | 0 | 1 (1 relating to weak activity comprising less than 70% of the cells) | 2 (score 2 relating to strong activity comprising more than 70% of the cells) | 0 | 0 | 0 |  |
|  | COc1cc2nc(-c3nonc3N)n(CC(=O)c3ccc(-c4ccccc4)cc3)c2cc1OC [Example 117] |  | 0 | 0 | 0 | 0 | 0 | 0 | 0 | 0 | 0 | 0 | 0 | 0 | 0 | 0 | 0 | 0 | 0 | 0 | IC50 (Jurkat): > 1 µM; IC50 (HT1080): > 1 µM; IC50 (HeLa): > 1 µM; IC50 (MRC5): > 1 µM |
